Experimental data from patent US20100130909A1, “TREATMENT OF BARRETT'S ESOPHAGUS USING PHOTODYNAMIC THERAPY” (HEALTH RESEARCH, INC., priority 2007, published 2010).
Read-outs that look alike come from different tables or passages of the source.

What was measured:
Barrett's mucosa = details: cited from earlier work; for Treatment response: CR, PDT + NdYAG thermal ablation: compilation of 1-3 PDT treatments + thermal ablation of small residual islands; for Complications: esophageal stricture / Treatment response: CR (no Barrett's esophagus tissue remained after treatment), PDT only: compilation of 1-3 PDT treatments; for Treatment response: CR (no Barrett's esophagus tissue remained after treatment), PDT only: porfimer sodium 2 mg/kg
[1] = system: Barrett's esophagus tissue; experiment: phase I/II trial of photodynamic therapy using HPPH in patients with Barrett's esophagus; format: in vivo, human; details: 30 patients
Method: injecting HPPH in a physiologically compatible medium into a patient having Barrett's esophagus tissue to provide a dose level of 3 through 5 mg/m^2 of body surface area, preferably 3 through 4 mg/m^2 of body surface area,
waiting for a time period of 24 through 60 hours to permit preferential absorption of the
HPPH into Barrett's esophagus tissue, and exposing the Barrett's esophagus tissue to light at a wavelength of about 670±5 nm at an energy of from 75 to 200 Joules/cm, preferably 75 to 200 Joules/cm.
Injection of the HPPH is preferably accomplished intravenously usually over a time period of 0.75 to 3 hours in a physiologically compatible medium. The time period is functionally dependent upon rate of infusion and dose level desired. The concentration is preferably 0.5 through 1.5 mg/ml in medium and the medium is preferably 0.1% polysorbate 80, 2% ethyl alcohol and 5% glucose in normal saline.
Exposure is accomplished using a fiber optic carrying laser light emitted by a laser. The laser may be any suitable laser emitting light at the wavelength and energy desired, e.g. a dye or diode laser. Exposure may be adjusted by length of time of exposure and/or adjustment of light intensity.
Using the above parameters, a phase I/II trial using HPPH and a phase III trial using PHOTOFRIN™, the latter approved by the United States Food and Drug Administration, the following results for response of Barrett's esophagus were obtained.

[2] = 100 patients, percent of patients
[3] = 100 patients, percent of patients, listed as porfimer sodium
[4] = only 1 PDT treatment, percent of patients

Substance	Complete ablation of Barrett's mucosa (PDT only or with thermal ablation) (Barrett's mucosa; 100 patients, 2 mg/kg, 630 nm, 100 to 250 J/cm, percent of patients) [%]	Treatment response: CR, PDT + NdYAG thermal ablation (Barrett's mucosa; [2]) [% CR]	Treatment response: CR, PDT + NdYAG thermal ablation (Barrett's mucosa; [3]) [%]	Complications: esophageal stricture (Barrett's mucosa; [2]) [%]	Complications: esophageal stricture (Barrett's mucosa; [3]) [%]	Treatment response: CR (no Barrett's esophagus tissue remained after treatment), PDT only (Barrett's mucosa; 100 patients, 630 nm, 100 to 250 J/cm, percent of patients) [% CR]	Treatment response: CR (no Barrett's esophagus tissue remained after treatment), PDT only (Barrett's mucosa; 100 patients, 630 nm, 100 to 250 J/cm, percent of patients, listed as porfimer sodium) [%]	Complications: sunburn (Barrett's mucosa; [2])	replacement of Barrett's mucosa with normal esophageal mucosa (Barrett's mucosa; all 100 patients treated, 2 mg/kg, 630 nm, 100 to 250 J/cm, percent of mucosa)	Treatment response: patients with >90 to <100% ablation, PDT only ([1]; only 1 PDT treatment, does not include NdYAG thermal ablation)	Complications: esophageal stricture [1, 4] [%]	Treatment response: CR (no Barrett's esophagus tissue remained after treatment), PDT only [1, 4] [% CR]	Complications: sunburn ([1]; percent of patients) [%]
porfimer sodium [PHOTOFRIN]	43	35	35	34	34	8	8	25-30%	75-80%	–	–	–	–
3-(1-hexyloxy) ethyl-derivative of pyropheophorbide-a [HPPH]	–	–	–	–	–	–	–	–	–	47% (>90 to <100%	12	4	<7
